One assay has as its system PR8 influenza virus. The assay is described as follows: PR8 influenza virus challenge after HA1 immunization. Type of assay: in vivo, mice. Particulars: 20 micrograms adjuvant with 5 micrograms HA1, intramuscular. The procedure:
Method: 5 micrograms of hemagglutinin protein (HA1) in the PR8 influenza virus was added to phosphate buffer, 20 micrograms of simvastatin, 20 micrograms of TH-Z80, 20 micrograms of TH-Z93 and 20 micrograms of TH-Z145, respectively. And mice were injected intramuscularly for immunization on day 0, day 14 and day 21. Nasal mucosa of mice was inoculated with PR8 virus on day 28. And then the weight of the mice was weighed daily and the death of the mice was observed.

Assay [1] has as its system anti-OVA IgM and IgG antibodies. In words: Rescue experiment of GGPP and GGOH on adjuvant activity. Type of assay: in vivo, mice. The conditions noted are these: for effect of GGPP and GGOH on adjuvant effects: GGPP and GGOH added; for IgG and IgM antibody titers vs PBS control: without addition of GGPP or GGOH. As for the experimental part: In particular, we investigated the effect of GGOH and GGPP on the adjuvant activity of simvastatin (HMG-COA reductase inhibitor), TH-Z93 (FPPS inhibitor), and TH-Z145 (GGPPS inhibitor).
Method: Simvastatin, TH-Z93 and TH-Z145 were formulated at a concentration of 10 mg/ml; the concentration of OVA antigen was 20 mg/ml; and GGOH and GGPP were formulated into a series of solutions at concentrations of 200 mg/ml, 100 mg/ml, 40 mg/ml and 20 mg/ml, respectively. For the experimental group, on the one hand, titers of antibodies were measured when immunization was performed without adding GGOH or GGPP while only mixing 10 μl of test compound and 5 μl of OVA antigen. On the other hand, titers of antibodies were measured when immunization was performed after adding GGOH or GGPP; specifically, 10 μl of test compound, 5 μl of OVA antigen and 5 μl of each concentration of GGOH or GGPP (total volume of 20 μl) were mixed and used for immunization in mice by injection at the sole of the right feet. Mice in the control group were treated with PBS and the antigen only, without addition of test compounds and GGOH or GGPP. On Day 7 and Day 14 after immunization, blood was taken from the mice's orbit, and 100 μl was taken for each mouse. The obtained blood was left at 4° C. overnight. The serum was separated, and titers of anti-OVA IgM and IgG antibodies in the serum were determined.

The test system of another assay is MDA-MB-231 cells. The assay is described as follows: MDA-MB-231 proliferation MTT test. It is filed as cell-based, human. Particulars: 72 hours. As for the experimental part: • Drug dissolution: […] The prepared bisphosphonate stock solution was diluted with DMEM complete medium. The maximum concentration was 1 mM. The dilution was performed serially in a ratio of 1:3.2 with a total of 11 concentration gradients; a. MDA-MB-231 cells were digested the day before. Centrifugation was performed at 1000 rmp for 3 min. The cells were counted. The cells were seeded into a 96-well plate at 3000 cells/well in a volume of 100 μl per well and cultured for 14-16 h. It should be noted that the cell count should be accurate, and the amount of cells seeded per well should be consistent. The cell suspension can be gently shaken in the intermittence of plating, or a row of cells were plated and the cell suspension was pipetted gently with a pipette. The speed of pipetting into the 96-well plate with a pipette should not be too fast or too slow, in order to avoid uneven distribution of cells in the plate, affecting the experiments; the wells at the fringe of the 96-well plate will evaporate slightly faster and the concentration of the solution will change slightly faster. Under normal situation, the central 60 wells should be selected for stimulation. Also, the pipetted liquid should be prevented from creating bubbles. b. After the cells had adhered, the liquid in the 96-well plate was pipetted out and discarded. […] c. 72 hours after the action of drug, the prepared MTT solution (immediately before use, a certain amount of MTT powder was weighed and dissolved in PBS at 5 mg/ml, under dark, filter with 0.22 filter membrane) was added directly to each well with 20 μl per well and continued to culture for 4 hours; d. The filter paper (which can be replaced by an absorbent paper) was laid, and the plate was inverted gently (be careful to prevent the crystal in the well from dropping). After the liquid in the wells was removed, 150 μl of DMSO was added to dissolve the crystals, and the mixture was shaken thoroughly with a shaker for a period of time just to dissolve the crystals. The absorbance (OD value) of each well was measured at 570 nm with ELIASA. The mean value of blank control was calculated as OD Blank. OD value for each well=OD measured-OD Blank. ODNT mean value was calculated. […] Mean and standard error were then calculated. The mean and standard error of each group of drug concentration (uM) and corresponding drug inhibition rate were fitted by Graph Prism software to obtain the IC50 of the drug.

Assay [2] relates to PvGGPPS (geranylgeranyl pyrophosphate synthase from Plasmodium). In words: In vitro PvGGPPS enzymatic activity assay. It is filed as biochemical. The conditions noted are these: GPP and IPP substrates. As for the experimental part:
PvGGPPs with 6 consecutive His at the N-terminus was induced to express in vitro, collected, and purified by Ni column. In vitro PvGGPPs enzymatic activity assay was performed in a 96-well plate at 200 μl of solution per well. The buffer of the system was 25 mM HEPES, 2.5 mM MgCl2, pH 7.4. Using GPP and IPP as reaction substrates, a 360 nm continuous spectrophotometric detection was performed in a phosphate lyase system. ORIGIN 8.0 software was used to plot and fit.

For the molecule `CCC(C)(C)C(=O)O[C@H]1C[C@@H](C)C=C2C=C[C@H](C)[C@H](CC[C@@H]3C[C@@H](O)CC(=O)O3)[C@H]21` [simvastatin, reference compound], in the assay with PR8 influenza virus, the “body weight and death after PR8 virus inoculation” value (“body weight and death” below) was “did not lose weight nor died”. Further, in assay [1], the “effect of GGPP and GGOH on adjuvant effects” value (“effect of GGPP and GGOH” below) is recorded as “effectively inhibit adjuvant effects”; the “IgG and IgM antibody titers vs PBS control” value is “significantly higher”.
`CCCCCCCCOc1ccc2c(c1)ncn2CC(O)(P(=O)(O)O)P(=O)(O)O` [TH-Z81]: the IC50 with MDA-MB-231 cells was determined as 59.6 µM; in assay [2], 2.07 µM.
`CCCCCCCCCOc1ccc2c(c1)ncn2CC(O)(P(=O)(O)O)P(=O)(O)O` [TH-Z153]: the IC50 in the assay with MDA-MB-231 cells came to 234 µM; in assay [2] it was 1.09 µM.
`CCCCCCOc1ccc2c(c1)ncn2CC(O)(P(=O)(O)O)P(=O)(O)O` [TH-Z80]: in the assay with PR8 influenza virus, the “body weight and death” value is given as “did not lose weight nor died”. Further, the IC50 was found to be 75.5 µM in the assay on MDA-MB-231 cells and 0.37 µM in assay [2].
For “(2-(3-(octyloxy)phenyl)ethane-1,1-diyl)bisphosphonic acid [TH-Z145]”, in the assay with PR8 influenza virus, the “body weight and death” value is recorded as “did not lose weight nor died”. For the same molecule, in assay [1], the “effect of GGPP and GGOH” value is given as “effectively inhibit adjuvant effects”; the “IgG and IgM antibody titers vs PBS control” value is “significantly higher”.
For `CCCCCCOc1ccnc(NC(P(=O)(O)O)P(=O)(O)O)c1` [TH-Z93, (((4-(hexyloxy)pyridin-2-yl)amino)methylene)bisphosphonic acid], the “body weight and death” value in the assay with PR8 influenza virus was “did not lose weight nor died”. In assay [1], the “effect of GGPP and GGOH” value is reported as “effectively inhibit adjuvant effects”; the “IgG and IgM antibody titers vs PBS control” value is reported as “significantly higher”.
For the molecule `CCCCCCCOc1ccc2c(c1)ncn2CC(O)(P(=O)(O)O)P(=O)(O)O` [TH-Z152], the figures for the IC50 (in the assay with MDA-MB-231 cells; in assay [2]) were 428 µM and 0.95 µM, respectively.

These data come from patent US20250367283A1, “MEVALONATE PATHWAY INHIBITOR AS HIGHLY-EFFICIENT VACCINE ADJUVANT” (Tsinghua University, priority 2015, published 2025).
